Laboratory results as given in the supplement of paper PMC11451515.

Tests used:
Conditions in all cases: 48 h
[1] = tested on: SEM cells; test: cell viability relative to DMSO control; higher = less cytotoxic
How it was run: (§1)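 Library compounds in DMSO were pin-dosed in an 11-point threefold series (47 μM to 0.79 nM) onto leukemia cells in 1536-well plates (5 μl). Plates held 500 cells/well of NOMO1 or SEM or 1000 cells/well of P12-Ichikawa, each adapted for at least four passages in each medium. Luminescence was read with CellTiter-Glo One after 48 h at 37°C. Viability means the per-plate percentage relative to DMSO wells, using cell-free wells as background.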

[2] = tested on: NOMO1; test: as above
How it was run: as §1

[3] = tested on: P12-Ichikawa; test: as above
How it was run: as §1

[4] = tested on: SEM cells; test: AUC of viability dose-response curve (% viability x log10 dose units); higher = less sensitive
How it was run: (§2)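 In 1536-well plates, leukemia cells adapted to each medium (500 or 1000 cells/well) were exposed for 48 h at 37°C to library compounds in DMSO across 11 threefold doses, 47 μM down to 0.79 nM. Viability was read by CellTiter-Glo One luminescence and normalised per plate to DMSO and cell-free wells. A four-parameter log-logistic fit over log10 doses was integrated by trapezoidal rule. This yielded the area under the curve, with over-full-viability curves scaled and quality-control failures dropped.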

[5] = tested on: NOMO1; test: as above
How it was run: as §2

[6] = tested on: P12-Ichikawa; test: as above
How it was run: as §2

COC(=O)C[C@](O)(CCCC(C)(C)O)C(=O)O[C@@H]1C(OC)=CC23CCCN2CCc2cc4c(cc2[C@H]13)OCO4 (some centres undefined)
cell viability [%]
Conditions	[1]	[2]	[3]
HPLM + 10% dialyzed FBS, 0.000781 µM	106	114	105
HPLM + 10% dialyzed FBS, 0.00234 µM	103	111	102
HPLM + 10% dialyzed FBS, 0.00702 µM	108	105	111
HPLM + 10% dialyzed FBS, 0.0211 µM	108	108	99.4
HPLM + 10% dialyzed FBS, 0.0632 µM	105	118	110
HPLM + 10% dialyzed FBS, 0.19 µM	120	107	106
HPLM + 10% dialyzed FBS, 0.569 µM	119	117	102
HPLM + 10% dialyzed FBS, 1.71 µM	109	97.1	97.1
HPLM + 10% dialyzed FBS, 5.12 µM	94.5	96	102
HPLM + 10% dialyzed FBS, 15.4 µM	92.5	105	91.3
HPLM + 10% dialyzed FBS, 46.1 µM	102	96.6	88.1
RPMI 5 mM glucose + 10% FBS, 0.000781 µM	98.4	97.1	99
RPMI 5 mM glucose + 10% FBS, 0.00234 µM	101	93.4	101
RPMI 5 mM glucose + 10% FBS, 0.00702 µM	106	96.3	111
RPMI 5 mM glucose + 10% FBS, 0.0211 µM	98.1	102	94.8
RPMI 5 mM glucose + 10% FBS, 0.0632 µM	111	107	91.5
RPMI 5 mM glucose + 10% FBS, 0.19 µM	111	98.4	101
RPMI 5 mM glucose + 10% FBS, 0.569 µM	95.9	105	103
RPMI 5 mM glucose + 10% FBS, 1.71 µM	89.6	101	97.7
RPMI 5 mM glucose + 10% FBS, 5.12 µM	84.3	88.4	95.1
RPMI 5 mM glucose + 10% FBS, 15.4 µM	96.9	93.6	91.7
RPMI 5 mM glucose + 10% FBS, 46.1 µM	93.3	90.1	94.1
RPMI 5 mM glucose + 10% dialyzed FBS, 0.000781 µM	104	102	102
RPMI 5 mM glucose + 10% dialyzed FBS, 0.00234 µM	100	105	104
RPMI 5 mM glucose + 10% dialyzed FBS, 0.00702 µM	104	104	98.6
RPMI 5 mM glucose + 10% dialyzed FBS, 0.0211 µM	106	111	99.7
RPMI 5 mM glucose + 10% dialyzed FBS, 0.0632 µM	97.2	108	102
RPMI 5 mM glucose + 10% dialyzed FBS, 0.19 µM	103	109	98.3
RPMI 5 mM glucose + 10% dialyzed FBS, 0.569 µM	105	101	97.3
RPMI 5 mM glucose + 10% dialyzed FBS, 1.71 µM	97.5	100	96
RPMI 5 mM glucose + 10% dialyzed FBS, 5.12 µM	99.7	102	91.6
RPMI 5 mM glucose + 10% dialyzed FBS, 15.4 µM	99.9	103	100
RPMI 5 mM glucose + 10% dialyzed FBS, 46.1 µM	102	97.8	89.5

AUC of viability dose-response curve
Conditions	[4]	[5]	[6]
HPLM + 10% dialyzed FBS	462	458	458
RPMI 5 mM glucose + 10% FBS	452	466	458
RPMI 5 mM glucose + 10% dialyzed FBS	471	466	458

ClC1=CC=C(C=C1)C(C#N)C2=C(Cl)C=C(C=C2Cl)N3\N=C/C(=O)NC3=O (centres undefined)
cell viability [%]
Conditions	[1]	[2]	[3]
HPLM + 10% dialyzed FBS, 0.000781 µM	87.4	82.4	110
HPLM + 10% dialyzed FBS, 0.00234 µM	43.9	101	106
HPLM + 10% dialyzed FBS, 0.00702 µM	104	99.5	106
HPLM + 10% dialyzed FBS, 0.0211 µM	83.7	111	110
HPLM + 10% dialyzed FBS, 0.0632 µM	91.8	112	110
HPLM + 10% dialyzed FBS, 0.19 µM	94.8	103	115
HPLM + 10% dialyzed FBS, 0.569 µM	91.3	125	104
HPLM + 10% dialyzed FBS, 1.71 µM	93.9	104	110
HPLM + 10% dialyzed FBS, 5.12 µM	86.4	97.8	104
HPLM + 10% dialyzed FBS, 15.4 µM	91.6	102	86.3
HPLM + 10% dialyzed FBS, 46.1 µM	107	107	86.4
RPMI 5 mM glucose + 10% FBS, 0.000781 µM	90.6	100	91
RPMI 5 mM glucose + 10% FBS, 0.00234 µM	47.9	93.4	94.7
RPMI 5 mM glucose + 10% FBS, 0.00702 µM	96.6	109	93.7
RPMI 5 mM glucose + 10% FBS, 0.0211 µM	92.5	102	94.7
RPMI 5 mM glucose + 10% FBS, 0.0632 µM	87.1	93.1	93.8
RPMI 5 mM glucose + 10% FBS, 0.19 µM	98.4	94.6	101
RPMI 5 mM glucose + 10% FBS, 0.569 µM	90.1	114	106
RPMI 5 mM glucose + 10% FBS, 1.71 µM	90.2	107	98.7
RPMI 5 mM glucose + 10% FBS, 5.12 µM	96.3	106	101
RPMI 5 mM glucose + 10% FBS, 15.4 µM	82.3	100	85.1
RPMI 5 mM glucose + 10% FBS, 46.1 µM	76.7	104	82.2
RPMI 5 mM glucose + 10% dialyzed FBS, 0.000781 µM	93.1	80.1	95.7
RPMI 5 mM glucose + 10% dialyzed FBS, 0.00234 µM	42.5	92.6	99.3
RPMI 5 mM glucose + 10% dialyzed FBS, 0.00702 µM	99.2	86.5	104
RPMI 5 mM glucose + 10% dialyzed FBS, 0.0211 µM	100	95.3	100
RPMI 5 mM glucose + 10% dialyzed FBS, 0.0632 µM	106	87.1	105
RPMI 5 mM glucose + 10% dialyzed FBS, 0.19 µM	119	110	102
RPMI 5 mM glucose + 10% dialyzed FBS, 0.569 µM	104	99.6	93.7
RPMI 5 mM glucose + 10% dialyzed FBS, 1.71 µM	94.6	96.7	108
RPMI 5 mM glucose + 10% dialyzed FBS, 5.12 µM	109	94.6	96.3
RPMI 5 mM glucose + 10% dialyzed FBS, 15.4 µM	95.8	103	79.6
RPMI 5 mM glucose + 10% dialyzed FBS, 46.1 µM	89.7	98.4	76

AUC of viability dose-response curve
Conditions	[4]	[5]	[6]
HPLM + 10% dialyzed FBS	428	453	460
RPMI 5 mM glucose + 10% FBS	415	458	454
RPMI 5 mM glucose + 10% dialyzed FBS	451	455	459

CNC(=O)c1ccc(N2C(=S)N(c3cnc(C#N)c(C(F)(F)F)c3)C(=O)C23CCC3)cc1F
cell viability [%]
Conditions	[1]	[2]	[3]
HPLM + 10% dialyzed FBS, 0.000781 µM	92.3	79.6	94.2
HPLM + 10% dialyzed FBS, 0.00234 µM	88.8	114	109
HPLM + 10% dialyzed FBS, 0.00702 µM	80.1	103	109
HPLM + 10% dialyzed FBS, 0.0211 µM	103	115	109
HPLM + 10% dialyzed FBS, 0.0632 µM	76.8	110	112
HPLM + 10% dialyzed FBS, 0.19 µM	95.6	116	111
HPLM + 10% dialyzed FBS, 0.569 µM	105	102	111
HPLM + 10% dialyzed FBS, 1.71 µM	98	89.8	114
HPLM + 10% dialyzed FBS, 5.12 µM	107	69.7	109
HPLM + 10% dialyzed FBS, 15.4 µM	101	64.8	95
HPLM + 10% dialyzed FBS, 46.1 µM	95.2	50.2	96.3
RPMI 5 mM glucose + 10% FBS, 0.000781 µM	83.9	84.9	86.7
RPMI 5 mM glucose + 10% FBS, 0.00234 µM	94.1	113	95.7
RPMI 5 mM glucose + 10% FBS, 0.00702 µM	90.7	111	97.5
RPMI 5 mM glucose + 10% FBS, 0.0211 µM	93.6	104	106
RPMI 5 mM glucose + 10% FBS, 0.0632 µM	97.1	105	109
RPMI 5 mM glucose + 10% FBS, 0.19 µM	92.7	111	107
RPMI 5 mM glucose + 10% FBS, 0.569 µM	94.8	96.3	117
RPMI 5 mM glucose + 10% FBS, 1.71 µM	101	83.4	113
RPMI 5 mM glucose + 10% FBS, 5.12 µM	98.3	79	111
RPMI 5 mM glucose + 10% FBS, 15.4 µM	98.6	73.2	92.8
RPMI 5 mM glucose + 10% FBS, 46.1 µM	93.9	60.2	96.1
RPMI 5 mM glucose + 10% dialyzed FBS, 0.000781 µM	82.6	88	90.5
RPMI 5 mM glucose + 10% dialyzed FBS, 0.00234 µM	95.3	109	111
RPMI 5 mM glucose + 10% dialyzed FBS, 0.00702 µM	85.3	107	118
RPMI 5 mM glucose + 10% dialyzed FBS, 0.0211 µM	91.5	104	118
RPMI 5 mM glucose + 10% dialyzed FBS, 0.0632 µM	114	99.1	118
RPMI 5 mM glucose + 10% dialyzed FBS, 0.19 µM	100	121	119
RPMI 5 mM glucose + 10% dialyzed FBS, 0.569 µM	97.8	123	116
RPMI 5 mM glucose + 10% dialyzed FBS, 1.71 µM	98.2	104	123
RPMI 5 mM glucose + 10% dialyzed FBS, 5.12 µM	96.8	73.3	126
RPMI 5 mM glucose + 10% dialyzed FBS, 15.4 µM	93.3	74	128
RPMI 5 mM glucose + 10% dialyzed FBS, 46.1 µM	108	74.2	101

AUC of viability dose-response curve
Conditions	[4]	[5]	[6]
HPLM + 10% dialyzed FBS	447	419	470
RPMI 5 mM glucose + 10% FBS	452	426	463
RPMI 5 mM glucose + 10% dialyzed FBS	457	439	467
